Measurements published in article PMC5641952 (ACS Medicinal Chemistry Letters, 2017).

Biological target: MDM2 (Homo sapiens, UniProt Q00987)
Assay: Fluorescence polarization
Settings: FP assay

SMILES | activity toward MDM2 (in words)
O=C(O)c1[nH]c2cc(Cl)ccc2c1C1C(=O)NCCCCCCCCCCCCCC(=O)N1Cc1ccc(F)cc1 (stereo not drawn) [1d] | only slightly or not active at all
O=C(O)c1[nH]c2cc(Cl)ccc2c1C1C(=O)NCCCCCCCCCCCCCC(=O)N1Cc1ccc(Cl)cc1 (stereo not drawn) [1f] | only slightly or not active at all
CCOC(=O)c1[nH]c2cc(Cl)ccc2c1C1C(=O)NCCCCCCCCCCCCCCCCCCCC(=O)N1Cc1ccc(OCc2ccc(Cl)c(Cl)c2)cc1 (stereo not drawn) [2k] | orders of magnitude less reactive or inactive
